Molecular target: IGF1-receptor (Homo sapiens, UniProt P08069)
Assay: IGF1-Receptor Tyrosine Kinase Assay
Type: biochemical
Conditions: in vitro kinase assay; ATP 25 μM; FL-peptide 1.5 μM; IGF1-Receptor 14 nM; 60 min room temperature; Caliper LabChip 3000; read-out: IGF1R kinase IC50
Description: A IGF1-Receptor Tyrosine Kinase Assay
The assays were performed in U-bottom 384-well plates. The final assay volume was 30 μl prepared from 15 μl additions of enzyme and substrates (fluoresceinated IGF1R substrate peptide and ATP) and test compounds in assay buffer (100 mM HEPES pH 7.4, 10 mM MnCl2, 0.015% Brij35 and 4 mM DTT). The reaction was initiated by the combination of IGF1-receptor with substrates and test compounds. The reaction was incubated at room temperature for 60 min. and terminated by adding 30 μl of 35 mM EDTA to each sample. The reaction mixture was analyzed on the Caliper LabChip 3000 by electrophoretic separation of the fluorescent substrate and phosphorylated product Inhibition data were calculated by comparison to no enzyme control reactions for 100% inhibition and vehicle-only reactions for 0% inhibition. The final concentration of reagents in the assays are ATP, 25 μM; FL-peptide, 1.5 μM; IGF1-Receptor, 14 nM; and DMSO, 1.6%. Dose response curves were generated to determine the concentration required inhibiting 50% of kinase activity (IC50). Compounds were dissolved at 10 mM in dimethylsulfoxide (DMSO) and evaluated at eleven concentrations, each in duplicate. IC50 values were derived by non-linear regression analysis.

Chain of IGF1-receptor (P08069 31-1367): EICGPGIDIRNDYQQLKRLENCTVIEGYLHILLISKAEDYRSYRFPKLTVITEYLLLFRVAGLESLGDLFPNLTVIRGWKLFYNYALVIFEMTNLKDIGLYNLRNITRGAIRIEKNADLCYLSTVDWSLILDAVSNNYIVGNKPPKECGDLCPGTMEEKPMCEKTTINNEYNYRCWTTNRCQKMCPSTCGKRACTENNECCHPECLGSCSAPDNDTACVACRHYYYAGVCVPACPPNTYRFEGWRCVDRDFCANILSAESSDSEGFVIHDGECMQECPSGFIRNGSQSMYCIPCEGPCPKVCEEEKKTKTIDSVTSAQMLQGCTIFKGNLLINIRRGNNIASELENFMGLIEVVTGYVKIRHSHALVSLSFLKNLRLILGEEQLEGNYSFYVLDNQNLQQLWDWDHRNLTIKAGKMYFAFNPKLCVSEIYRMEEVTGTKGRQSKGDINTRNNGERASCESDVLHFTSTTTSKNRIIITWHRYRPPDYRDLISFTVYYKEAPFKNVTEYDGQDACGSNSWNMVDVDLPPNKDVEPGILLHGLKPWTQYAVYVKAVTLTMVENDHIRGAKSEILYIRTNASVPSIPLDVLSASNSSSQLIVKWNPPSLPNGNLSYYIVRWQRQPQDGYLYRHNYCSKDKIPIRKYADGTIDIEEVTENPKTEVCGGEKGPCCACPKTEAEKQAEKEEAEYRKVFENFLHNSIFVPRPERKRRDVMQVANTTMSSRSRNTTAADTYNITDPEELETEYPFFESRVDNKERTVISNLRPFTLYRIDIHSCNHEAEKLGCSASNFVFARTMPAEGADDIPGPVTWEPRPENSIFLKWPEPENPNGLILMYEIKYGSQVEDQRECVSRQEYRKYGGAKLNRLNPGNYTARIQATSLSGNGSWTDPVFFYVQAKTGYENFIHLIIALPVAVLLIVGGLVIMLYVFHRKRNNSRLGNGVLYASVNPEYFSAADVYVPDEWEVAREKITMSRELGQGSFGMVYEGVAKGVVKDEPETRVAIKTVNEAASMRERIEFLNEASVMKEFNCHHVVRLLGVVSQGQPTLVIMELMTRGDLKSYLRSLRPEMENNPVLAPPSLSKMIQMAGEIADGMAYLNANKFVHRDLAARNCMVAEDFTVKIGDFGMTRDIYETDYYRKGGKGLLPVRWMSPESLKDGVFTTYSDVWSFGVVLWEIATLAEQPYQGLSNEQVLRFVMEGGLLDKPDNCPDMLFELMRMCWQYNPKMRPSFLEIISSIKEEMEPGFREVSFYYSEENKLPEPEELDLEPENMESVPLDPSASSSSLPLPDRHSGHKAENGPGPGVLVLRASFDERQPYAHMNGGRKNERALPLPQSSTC

IC50 [nM]	SMILES
20	O=C(Nc1ccc(F)nc1)N1CCCCN1c1nc(Nc2cc(C3CC3)n[nH]2)c2cccn2n1 [Example 2]
62	O=C(c1nccs1)N1CCCCN1c1nc(Nc2cc(C3CC3)n[nH]2)c2cccn2n1 [Example 4]
2	O=C(Nc1nccs1)N1CCCCN1c1nc(Nc2cc(C3CC3)n[nH]2)c2cccn2n1 [Example 3]

From patent publication US8212031B2, “Pyrrolotriazine kinase inhibitors” (Bristol-Myers Squibb Company, priority 2008, dated 2012)
